# Test results: patent publication US20220305092A1, “MEDICAMENT AND FOOD FOR PREVENTING OR TREATING NOVEL CORONAVIRUS PNEUMONIA COVID-19 AND USE THEREOF” (GUANGZHOU CENTURY CLINICAL RESEARCH CO., LTD, priority 2020, published 2022)
# What was measured:
# COVID-19 virus = experiment: Inhibition of cytopathic effect caused by COVID-19 virus in VeroE6 cells; type: cell-based; conditions: for inhibition of the cytopathic effect caused by the COVID-19 virus (in words): Example 2, VeroE6 cells
# [1] = system: lipopolysaccharide-induced intestinal barrier dysfunction in mice; experiment: Intestinal permeability (serum FITC-glucan) in lipopolysaccharide-induced intestinal barrier dysfunction in mice; type: in vivo, mouse; conditions: 100 mg/kg intragastrically, 30 days, model 35.06, blank 9.40
# Text: Lipopolysaccharides could cause impaired intestinal function in animals. The protective effect of lysozyme and lysozyme combinations against lipopolysaccharide-induced intestinal barrier dysfunction in mice were studied in the present experiment.
# Test drugs: lysozyme, monoammonium glycyrrhizinate, and dipotassium glycyrrhizinate.
# Test animals: clean-grade male C57BL/6 mice, weighing 20 to 25 g.
# Animal grouping and administration: The animals were randomly divided into a blank group, a model group, a lysozyme group (100 mg/kg), lysozyme+monoammonium glycyrrhizinate group A (100 mg/kg+2 mg/kg), lysozyme+monoammonium glycyrrhizinate group B (100 mg/kg+10 mg/kg), lysozyme+monoammonium glycyrrhizinate group C (100 mg/kg+20 mg/kg), and a lysozyme+dipotassium glycyrrhizinate group (100 mg/kg+2 mg/kg), with eight animals in each group. […]
# Determination of intestinal permeability: The animals of each group were administered intragastrically with 600 mg/kg of FITC-glucan (dissolved in a phosphate buffer), and after 4 hours, blood was taken from eyeballs. The content of the FITC-glucan in the serum was measured by means of fluorescence spectrometry (with an excitation wavelength of 480 nm and an emission wavelength of 520 nm), and the results were shown in Table 5.
# Claudin-1 protein = experiment: Claudin-1 mRNA expression in jejunum tissue of lipopolysaccharide-treated mice (quantitative PCR); type: in vivo, mouse; conditions: 100 mg/kg, model 0.73, blank 1.07
# Method: (§1) Animal grouping and administration: The animals were randomly divided into a blank group, a model group, a lysozyme group (100 mg/kg), lysozyme+monoammonium glycyrrhizinate group A (100 mg/kg+2 mg/kg), lysozyme+monoammonium glycyrrhizinate group B (100 mg/kg+10 mg/kg), lysozyme+monoammonium glycyrrhizinate group C (100 mg/kg+20 mg/kg), and a lysozyme+dipotassium glycyrrhizinate group (100 mg/kg+2 mg/kg), with eight animals in each group. Each drug group was administered intragastrically by each dose of drugs every day, while the blank group and the model group were administered with normal saline. The administration was performed for 30 consecutive days.
# (§2) Model establishment: After administration, the animals of each group except the blank group were intraperitoneally injected with 15 mg/kg of lipopolysaccharides, and the blank group was injected with normal saline. The animals were fasted for 12 hours after injection.
# (§3) Determination of expression of tight junction proteins in intestinal tissue: After the animals were sacrificed, jejunum tissue samples were taken for RNA extraction, the relative expression levels of occludin protein and Claudin-1 protein in the tissues were detected by quantitative PCR and the results were shown in Table 6.
# occludin protein = experiment: Occludin mRNA expression in jejunum tissue of lipopolysaccharide-treated mice (quantitative PCR); type: in vivo, mouse; conditions: 100 mg/kg, model 0.54, blank 1.04
# Method: as §1, §2, §3
# [2] = system: guinea pigs which had inhaled smoke; experiment: Airway resistance and lung function of guinea pigs which had inhaled smoke; type: in vivo, guinea pig
# Method: The smoke-induced model was a classic animal model for chronic obstructive pulmonary disease. After inhaling smoke for a long period of time, animals could suffer from increased mucus secretion, airway obstruction, lung function decline, etc. The effect of the lysozyme on airway obstruction was evaluated by means of the model establishment method in the present experiment.
# Lysozyme, monoammonium glycyrrhizinate, and monopotassium glycyrrhizinate.
# Male Hartley guinea pigs, weighing 400 to 500 g, were randomly divided into a blank group, a model group, a lysozyme oral administration group (200 mg/kg), a lysozyme inhalation group (2 mg/kg), lysozyme+monoammonium glycyrrhizinate inhalation group (2 mg/kg+0.1 mg/kg), lysozyme+monopotassium glycyrrhizinate oral administration group I (200 mg/kg+20 mg/kg), and lysozyme+monopotassium glycyrrhizinate oral administration group II (200 mg/kg+40 mg/kg), with eight animals in each group.
# The animals in each group except the blank group were exposed to cigarette smoke by using a smoke exposure system for oro-nasal inhalation only, such that the animals inhaled smoke of five cigarettes within 40 minutes per day, for 5 exposure days per week, for 12 consecutive weeks.
# The lysozyme and monoammonium glycyrrhizinate used for inhalation administration were respectively crushed into powders with a particle size of less than 10 μm. The lysozyme and monopotassium glycyrrhizinate used for oral administration were respectively dissolved in normal saline.
# The animals in each group except the blank group and the model group were administered once a day for 4 consecutive weeks from the 8th week after the model establishment began. The inhalation administration groups were administered by means of an oro-nasal inhalation exposure system, while the oral administration groups were administered intragastrically. Animals in the blank group and the model group were administered intragastrically with normal saline per day.
# Airway resistance measurement and 100 ms (millisecond) expiratory volume measurement were performed after administration.
# The animals were placed in a double chamber plethysmography system, and after the animals were left in a tranquil state for 10 minutes, the specific airway resistance (sRaw) was measured. The animals were anesthetized by intramuscular injection of ketamine, then a catheter was then inserted into the trachea, and the forced expiratory volume in 100 ms (FEV 100) of the animals was measured through a lung function testing system.
# [3] = inhalation, 2 mg/kg once a day for 4 weeks
molecule,measurement,setting,value
"CC1(C)[C@@H](O[C@H]2O[C@H](C(=O)O)[C@@H](O)[C@H](O)[C@H]2O[C@@H]2O[C@H](C(=O)O)[C@@H](O)[C@H](O)[C@H]2O)CC[C@]2(C)[C@H]3C(=O)C=C4[C@@H]5C[C@@](C)(C(=O)O)CC[C@]5(C)CC[C@@]4(C)[C@]3(C)CC[C@@H]12.N [Monoammonium glycyrrhizinate, monoammonium glycyrrhizinate]",Inhibition rate (%),"COVID-19 virus; 1000 μg/ml, VeroE6 cells, 100 TCID50, 4 days",23.35 ± 5.43%
same,Inhibition rate (%),"COVID-19 virus; 2000 μg/ml, VeroE6 cells, 100 TCID50, 4 days",29.42 ± 7.16%
same,inhibition of the cytopathic effect caused by the COVID-19 virus (in words),COVID-19 virus,relatively weak inhibition effect
lysozyme,Content of FITC-glucan,[1],27.53 ± 3.21 µg/mL
same,Relative expression quantity of Claudin-1 mRNA,Claudin-1 protein,0.79 ± 0.16
same,Inhibition rate (%),"COVID-19 virus; 350 μg/ml, Example 3",6.67 ± 1.56%
same,inhibition of the cytopathic effect caused by the COVID-19 virus (in words),COVID-19 virus,significantly inhibited
same,Relative expression quantity of Occludin mRNA,occludin protein,0.69 ± 0.07
same,100 ms expiratory volume,[2]; [3],7.68 ± 1.36 mL
same,Airway resistance (cmH2O · s),[2]; [3],3.10 ± 0.14 cmH2O · s
same,100 ms expiratory volume,"[2]; oral administration, 200 mg/kg once a day for 4 weeks, model 4.18, blank 11.86",5.79 ± 2.03 mL
same,Airway resistance (cmH2O · s),"[2]; oral administration, 200 mg/kg once a day for 4 weeks, model 4.72, blank 1.43",3.79 ± 0.30 cmH2O · s
